Data as given in article PMC5636972 (Cell Death & Disease, 2017).
Blank lines part the entries; values can stand above or below the compound they belong to.

How the values were obtained:
[1] = tested on: HCT116 cells; test: MTT cell viability assay, HCT116; format: cell-based
Description: (§1) To evaluate the potency of I-Trp in killing these cancer cell lines, we performed MTT assay to determine the cell viability of target cells. […] The cancer cells with higher expression levels of CCT-β were indeed more sensitive to I-Trp.

[2] = tested on: MCF-10A cells; test: MTT cell viability assay, non-tumorigenic MCF-10A; format: cell-based; conditions: for EC50: MTT, 72 h, normal cells
Description: as §1

[3] = tested on: Colo205 cells; test: MTT cell viability assay, Colo205; format: cell-based
Description: as §1

[4] = tested on: MKN-45 cells; test: MTT cell viability assay, MKN-45; format: cell-based
Description: as §1

[5] = tested on: MDA-MB-231 cells; test: MTT cell viability assay, MDA-MB-231; format: cell-based; conditions: for EC50: MTT, 72 h; for killing these cancer cells (in words): MDA-MB-231, MKN-45, HCT116, Colo205, Table 1
Description: as §1

[6] = tested on: I-Trp-induced apoptosis; test: Reversal of I-Trp-induced apoptosis by pretreatment with inhibitors (sub-G0 flow cytometry); format: cell-based
Experimental: Figure 4 Effect of I-Trp on the levels of intracellular Ca^2+. (a) I-Trp induces intracellular Ca^2+ release in a concentration-dependent manner. Cells were pretreated with BAPTA/AM (negative control) for 1 h, with MCN-A-343 (positive control) or different concentrations of I-Trp and incubated with Fluo-4 for 40 min. After incubation, the fluorescence signal was immediately measured using a fluorescence microplate reader by excitation at 509 nm and emission at 516 nm. (b) Cells were pre-incubated with BAPTA/AM (1–20 μM) for 1 h prior to treatment with EC50 concentrations of I-Trp for 72 h. Cell apoptosis was assessed via PI-based flow cytometric analysis. Data are expressed as mean±S.D. ***P<0.001, significant difference as compared to control. ^#P<0.05, ^##P<0.01 and ^###P<0.001 significant difference as compared to I-Trp alone
Next, we used ERK1/2 inhibitor U0126,[33], [34] JNK inhibitor SP600125,[35], [36] and p38 inhibitor SB203580[37] to confirm the involvement of MAPKs in I-Trp-induced apoptosis. We pretreated the cancer cell lines with 0.5–10 μM U0126, 1–10 μM SP600125, or 1–10 μM SB203580 for 1 h and subsequently treated them with I-Trp to detect the sub-G0 cell accumulation by flow cytometry.
(§2) Cells (3 × 10^5) were fixed in 70% ice-cold EtOH for 30 min at RT. Cells were washed with PBS once and then incubated with propidium iodide (PI) staining solution (PBS containing 0.1 % BSA, 0.1% RNase A, and […] PI) for 30 min at RT in the dark. After the incubation, the cells were analyzed by flow cytometry to assess their DNA content.

[7] = tested on: microtubules; design: method as in PMID 19690144; conditions: cited from earlier work
[8] = tested on: intracellular Ca^2+; test: Fluo-4 intracellular Ca2+ assay; format: cell-based; conditions: the four cancer cell lines, Fluo-4, 40 min
Experimental: We used a Fluo-4 direct calcium assay kit from Invitrogen (catalog item F10471) to measure the intracellular calcium response to I-Trp in target cancer cell lines. Cancer cell lines were cultured in 96-well plates with media containing 10% FBS. After reaching confluence, cancer cells were treated with MCN-A-343 (positive control), BATPA (negative control), or I-Trp and incubated with Fluo-4 direct calcium reagent loading solution for 40 min. After incubation, the fluorescence signal was immediately measured using a fluorescence microplate reader at excitation and emission of 509 and 516 nm, respectively.

[9] = tested on: caspases; test: Caspase activity assay (fluorescent substrates); format: cell-based; conditions: EC50 concentrations, 72 h, the four cancer cell lines
Experimental: The caspase activity assay was performed according to the manufacturer’s guidelines (BioVision). Briefly, cell lysates (200 μg) were diluted in 50 μl of cell lysis buffer (supplied by the kit). Equal volumes of the 2 × reaction buffer (supplied by the kit) containing 10 mM DTT were added to the cell lysates. Subsequently, 50 μM of fluorescent dye-conjugated caspase substrate was individually added to the designated caspase activity assay. After a 2-h incubation, free fluorescent dyes in the solution were read in a fluorimeter equipped with a 385-nm excitation filter and 510-nm emission filter.

[10] = tested on: MDA-MB-231 cells; test: PI-based flow cytometric sub-G0 apoptosis assessment; format: cell-based; conditions: MDA-MB-231 with CCT-β shRNA clones, 10 μM, 72 h
Experimental: as §2

[11] = tested on: MDA-MB-231, MKN-45, HCT116, and Colo205 cells; test: as above; format: cell-based; conditions: 72 h, different concentrations, the four cancer cell lines
Experimental: as §2

[12] = tested on: CCT-β and β-tubulin mRNA; test: Real time qPCR for CCT-β and β-tubulin mRNA; format: cell-based; conditions: HCT116, MKN-45, MDA-MB-231, Colo205
Description: Mean values ± S.D. from three independent samples are shown. The RT-PCR experiments reveal that the mRNA levels of CCT-β and β-tubulin were not changed after I-Trp treatment in the tested cancer cells.

[13] = tested on: proteasome activity; test: Proteasome activity assay in cell lysates; format: cell-based
Experimental: After being treated with I-Trp for designated time periods, cells were collected and resuspended in cell lysis buffer (BioVision). Aliquots of cell lysates (100 μg) were incubated with 1 μM of fluorescent proteasome substrate (BioVision) for 30 min at 37 °C. The fluorescent intensity was read using a fluorimeter with an exciting wavelength at 355 nm and emission wavelength at […] and presented as relative proteasome activity.

[14] = tested on: β-tubulin; design: method as in PMID 19690144; conditions: cited from earlier work
[15] = tested on: CCT-β : β-tubulin complex; test: co-IP with CCT-β antibody, immunoblot for β-tubulin; format: cell-based; conditions: 5 or 10 μM, 6 h; MDA-MB-231, MKN-45, HCT116, Colo205 lysates
Experimental: With GADPH as a protein-loading control, we also confirmed that the input of β-tubulin and CCT-β in the experiments was equal with or without treatment. […] After 24–48 h of I-Trp treatment, cells underwent apoptosis to trigger proteasome activity for cellular protein degradation as reported previously.[14]
(a) Using CCT-β antibody to co-IP the complex, and then detecting the quantity of trapped β-tubulin with western blotting using β-tubulin antibody. […] The cancer cells were treated with I-Trp for the designated time periods. Cell lysates were examined using the proteasome activity assay. (c) The changed expression levels of ER stress protein markers upon I-Trp treatment
The cell lysates (100 μg) were boiled for 5 min in SDS sample buffer (62.5 mM Tris-HCl pH 6.7, 1.25% SDS, 12.5% glycerol, and 2.5% β-mercaptoethanol), and the proteins were separated via SDS-PAGE. For western blotting, proteins were transferred onto a PVDF membrane (Millipore, MA, USA) and incubated with different antibody agents. After incubation with horseradish peroxidase (HRP)-conjugated secondary antibody, immuno-reactive protein bands were visualized using the enhanced chemiluminescence (ECL) system (Amersham Bioscience, Tokyo, Japan).

[16] = tested on: MDA-MB-231, MKN-45, HCT116, and Colo205 cells; test: Long-term colony formation assay; format: cell-based; conditions: 0.31 to 2.5 μM, 7 days
Description: Next, we investigated the long-term effect of I-Trp on proliferation of the target cells using the colony formation assay.

Structure (SMILES): COC(=O)C1Cc2c([nH]c3ccccc23)C(c2ccccc2)N1C(=O)CCl (stereo not drawn) [Compound 3]
EC50 ([1]; Homo sapiens, HCT-116, 72 h): 3.3 µM | EC50 ([2]; Homo sapiens, MCF-10A): > 20 µM | EC50 ([3]; Homo sapiens, COLO 205, 72 h): 8.1 µM | EC50 ([4]; Homo sapiens, MKN-45, 72 h): 4.7 µM | EC50 ([5]; Homo sapiens, MDA-MB-231): 2.7 µM | killing these cancer cells (in words) [5]: effectively killed cancer cells

Structure (SMILES): N#CC(=C(/N)Sc1ccccc1N)/C(C#N)=C(/N)Sc1ccccc1N [Compound U0126]
reversal of I-Trp-induced apoptosis ([6]; MKN-45 cells, 0.5–10 μM pretreatment 1 h): could not reverse the I-Trp-induced apoptosis

Structure (SMILES): COC(=O)C1Cc2c([nH]c3ccccc23)C(c2ccccc2)N1C(=O)CI (stereo not drawn) [Compound 4]
EC50 ([1]; Homo sapiens, HCT-116, 72 h): 0.54 µM | EC50 ([2]; Homo sapiens, MCF-10A): ~20 µM | toxicity relative to doxorubicin on MCF-10A ([2]; MCF-10A): significantly less (~fivefold) toxic compared to doxorubicin | EC50 ([3]; Homo sapiens, COLO 205, 72 h): 0.99 µM | EC50 ([4]; Homo sapiens, MKN-45, 72 h): 1.6 µM | EC50 ([5]; Homo sapiens, MDA-MB-231): 0.59 µM | potency relative to doxorubicin ([5]; cancer cell lines of Table 1): slightly less (~twofold) potent than doxorubicin

Structure (SMILES): COC(=O)[C@@H](Cc1c[nH]c2ccccc12)NC(=O)CI [I-Trp]
effect on polymerization/depolymerization of microtubules [7]: does not affect the polymerization/depolymerization of microtubules | intracellular Ca^2+ mobilization [8]: induced the intracellular Ca^2+ mobilization in a dose-dependent manner | activities of caspases-2 to -9 [9]: enhanced | EC50 ([1]; 72 h): 0.88 µM | toxicity to MCF-10A (in words) ([2]; MCF-10A): non-toxic | EC50 [2]: > 20 µM | cell death (sub-G0) after knockdown of CCT-β [10]: significantly (P<0.001) reduced cell death from I-Trp exposure | sub-G0 cell accumulation [11]: dose-dependent sub-G0 cell accumulation | mRNA levels of CCT-β and β-tubulin [12]: not changed | proteasome activities ([13]; MDA-MB-231 cells): less apparent | proteasome activities ([13]; MKN-45, HCT116, and Colo205 cells): elevated in an I-Trp dose-dependent manner | EC50 ([3]; 72 h): 0.9 µM | EC50 ([4]; 72 h): 1.27 µM | covalent modification of β-tubulin [14]: alkylate Cys^354 of β-tubulin | disruption of the CCT-β : β-tubulin complex (trapped β-tubulin) [15]: disrupted the CCT-β : β-tubulin complex | EC50 [5]: 2.5 µM | colony formation [16]: formed more diffuse or smaller colonies

Structure (SMILES): C[S+]([O-])c1ccc(-c2nc(-c3ccncc3)c(-c3ccc(F)cc3)[nH]2)cc1 (stereo not drawn) [SB203580]
reversal of I-Trp-induced apoptosis ([6]; 1–10 μM pretreatment 1 h, the cancer cell lines): reduced the percentage of I-Trp-induced apoptotic cells

Structure (SMILES): COC(=O)C(Cc1c[nH]c2ccccc12)NC(=O)C(Cl)Cl (stereo not drawn) [Compound 1d]
EC50 ([1]; 72 h): > 20 µM | EC50 [2]: > 20 µM | EC50 ([3]; 72 h): > 20 µM | EC50 ([4]; 72 h): > 20 µM | EC50 [5]: > 20 µM

Structure (SMILES): COC(=O)C(Cc1c[nH]c2ccccc12)NC(=O)C[N+](=O)[O-] (stereo not drawn) [Compound 1e]
EC50 ([1]; 72 h): 20.9 µM | EC50 [2]: > 20 µM | EC50 ([3]; 72 h): 15.9 µM | EC50 ([4]; 72 h): 14.1 µM | EC50 [5]: > 20 µM

Structure (SMILES): COc1cccc2c1C(=O)c1c(O)c3c(c(O)c1C2=O)C[C@@](O)(C(=O)CO)C[C@@H]3O[C@H]1C[C@H](N)[C@H](O)[C@H](C)O1 [Doxorubicin, reference compound]
EC50 ([1]; Homo sapiens, HCT-116, 72 h): 0.26 µM | EC50 ([2]; Homo sapiens, MCF-10A): 3.8 µM | EC50 ([3]; Homo sapiens, COLO 205, 72 h): 0.5 µM | EC50 ([4]; Homo sapiens, MKN-45, 72 h): 0.24 µM | EC50 ([5]; Homo sapiens, MDA-MB-231): 0.46 µM

Structure (SMILES): Oc1c2ccccc2c2c3c(cccc13)N=N2 [SP600125]
reversal of I-Trp-induced apoptosis ([6]; MDA-MB-231 and HCT116 cells, 1–10 μM pretreatment 1 h): could not reverse I-Trp-induced apoptosis

Continued, in another order:

EC50 ([1]; 72 h): > 20 µM | EC50 ([3]; 72 h): > 20 µM | EC50 ([4]; 72 h): > 20 µM | EC50 [5]: > 20 µM
Structure (SMILES): COC(=O)C(Cc1c[nH]c2ccccc12)NC(=O)C(F)(F)F (stereo not drawn) [Compound 1g]
EC50 [2]: > 20 µM

EC50 ([1]; 72 h): > 20 µM | EC50 ([3]; 72 h): > 20 µM | EC50 ([4]; 72 h): > 20 µM | EC50 [5]: 19.5 µM
Structure (SMILES): COC(=O)C(Cc1c[nH]c2ccccc12)NC(=O)CCl (stereo not drawn) [Compound 1c]
EC50 [2]: > 20 µM | killing these cancer cells (in words) [5]: mostly inactive

EC50 ([1]; 72 h): 1.1 µM | EC50 ([3]; 72 h): 1.6 µM | EC50 ([4]; 72 h): 2.5 µM | EC50 [5]: 3.75 µM
Structure (SMILES): COC(=O)C(Cc1c[nH]c2ccccc12)NC(=O)CBr (stereo not drawn) [Compound 1b]
EC50 [2]: > 20 µM | killing these cancer cells (in words) [5]: almost equipotent as I-Trp (1a)

EC50 ([1]; 72 h): > 20 µM | EC50 ([3]; 72 h): > 20 µM | EC50 ([4]; 72 h): > 20 µM | EC50 [5]: > 20 µM
Structure (SMILES): COC(=O)C(Cc1c[nH]c2ccccc12)NC(=O)CC(F)(F)F (stereo not drawn) [Compound 1f]
EC50 [2]: > 20 µM

EC50 ([1]; 72 h): > 20 µM | EC50 ([3]; 72 h): > 20 µM | EC50 ([4]; 72 h): > 20 µM | EC50 [5]: > 20 µM
Structure (SMILES): COC(=O)C(Cc1c[nH]c2ccccc12)NC(=O)CC#N (stereo not drawn) [Compound 1h]
EC50 [2]: > 20 µM
